Reference: patent US9598364B2, “Indolyl or indolinyl hydroxamate compounds” (Taipei Medical University, priority 2010, dated 2017)
Where two headings read alike, the source gives them in different places. One block for each compound: values may come before it.

Tests used:
Kasumi-1 = assay: MTT cell viability assay, Kasumi-1; format: cell-based
NB4 = assay: cells
Procedure: (§1) 10^4 cells per well were seeded in 96-well culture plates with or without one of the test compounds. Various concentrations for the test compound were examined. […] The drug concentration resulting in total growth inhibition (TGI) is determined when Ti=Tz.
(§2) Cells were seeded in a 96-well flat-bottomed plate (2,500 to 3,000 cells per well). […] After being incubated at 37° C. for 2 h, the supernatant was removed and 200 μl/well of DMSO were added to dissolve the remaining MTT dye. The absorbance at 570 nm in each well was determined using a plate reader.

K562 = assay: cells
Procedure: as §1, §2

U937 = assay: cells
Procedure: as §1, §2

HL60 = assay: cells
Procedure: as §1, §2

[1] = system: MDA-MB-231 (estrogen-independent breast cancer); assay: SRB assay, MDA-MB-231; format: cell-based; conditions: Homo sapiens, MDA-MB-231 cells, 48 h
Procedure: (§3) Human cancer A549 (non-small cell lung cancer), MDA-MB-231 (estrogen-independent breast cancer), Hep 3B (hepatoma), and HA22T (hepatoma) cells were seeded in 96-well plates in medium with 5% FBS. After 24 h, cells were fixed with 10% trichloroacetic acid (TCA) to represent cell population at the time of compound addition (T0). After additional incubation of DMSO or test compound for 48 h, cells were fixed with 10% TCA and SRB at 0.4% (w/v) in 1% acetic acid was added to stain cells. Unbound SRB was washed out by 1% acetic acid and SRB bound cells were solubilized with 10 mM Trizrna base. The absorbance was read at a wavelength of 515 nm. Using the absorbance measurements of time zero (T0), the control group (C), and the cell growth in the presence of the compound (Ti), the percentage growth was calculated at each of the compound concentrations levels.

[2] = system: A549 (non-small cell lung cancer); assay: SRB assay, A549; format: cell-based, Human; conditions: A549 cells, 48 h
Procedure: as §3

HA22T (hepatoma) = assay: SRB assay, HA22T; format: cell-based, Human; conditions: HA22T cells, 48 h, read-out: HA22T liver GI50
Procedure: as §3

Hep 3B (hepatoma) = assay: SRB assay, Hep 3B; format: cell-based; conditions: Homo sapiens, Hep3B, Hep-3B cells, 48 h, read-out: Hep-3B liver GI50
Procedure: as §3

PC-3 cells = assay: Western blot analysis; format: cell-based; conditions: PC-3 cells, 1, 2.5, or 5 μM, 48 hours
Procedure: PC-3 cells treated with a test compound at 1, 2.5, or 5 μM in RPMI 1640 supplemented with 10% FBS for 48 hours. The cells were collected and sonicated. Protein concentrations in the resultant lysates were determined by a Bradford protein assay kit (Bio-Rad, Hercules, Calif.). The protein lysate, containing the same amount of proteins, were subjected to 10% SDS-polyacrylarnide gel (10%) electrophoresis. The proteins on the gel were then transferred onto an Immobilon-nitrocellulose membrane (Millipore, Bellerica, Mass.) in a semi-dry transfer cell. The transblotted membrane was washed twice with tris-buffered saline containing 0.1% Tween 20 (TBST). After being blocked with TBST containing 5% nonfat milk for 40 min, the membrane was incubated with a primary antibody specific to Acetyl-H3 (antibody obtained from Upstate Biotechnology, Inc., Lake Placid, N.Y.), H3 (Upstate Biotechnology), Acetyl α-tubulin (Sigma-Aldrich, St. Louis, Mo.), phospho-Akt (Serine 473) (Cell Signaling Technologies, Danvers, Mass.), Akt (Cell Signaling Technologies), Acetyl p53 (Santa Cruz Biotechnology, Santa Cruz, Calif.), p53 (Santa Cruz Biotechnology), p21 (Santa Cruz Biotechnology), or α-tubulin (Sigma-Aldrich, St. Louis, Mo.) (1:3000 dilution) in TBST/1% nonfat milk at 4 overnight. The membrane was washed three times with TBST for a total of 15 min and then incubated with a goat anti-rabbit or anti-mouse IgG antibody conjugated with horseradish (diluted 1:3000) for 1 h at room temperature. After being washed for at least three times with TBST, the signal intensity for each protein band was determined.

MV4-11 = assay: cells
Procedure: as §1, §2

[3] = Kasumi-1 leukemia cells, MTT, 48 or 72 hr
[4] = NB4 leukemia cells, MTT, 48 or 72 hr
[5] = K562 leukemia cells, MTT, 48 or 72 hr
[6] = U937 leukemia cells, MTT, 48 or 72 hr
[7] = HL60 leukemia cells, MTT, 48 or 72 hr
[8] = Homo sapiens, NB-4, read-out: LC50
[9] = Homo sapiens, K562, read-out: LC50
[10] = Homo sapiens, U-937, read-out: LC50

SMILES: Nc1ccn([C@@H]2O[C@H](CO)[C@@H](O)[C@@H]2O)c(=O)n1 [Ara-C, reference compound]
GI50 (Kasumi-1; [3]): > 10000 nM | TGI (Kasumi-1; [3]): >10000 nM | CC50 (Kasumi-1; Kasumi-1 leukemia cells, MTT, 48 or 72 hr, read-out: LC50 (the source's name)): > 10000 nM | GI50 (NB4; [4]): 448 nM | TGI (NB4; [4]): 2324.0 nM | CC50 (NB4; read-out: LC50, NB4 leukemia cells, MTT, 48 or 72 hr): 7320 nM | GI50 (K562; [5]): > 10000 nM | TGI (K562; [5]): >10000 nM | CC50 (K562; read-out: LC50, K562 leukemia cells, MTT, 48 or 72 hr): > 10000 nM | GI50 (U937; [6]): 46.6 nM | TGI (U937; [6]): 109.7 nM | CC50 (U937; read-out: LC50, U937 leukemia cells, MTT, 48 or 72 hr): 665 nM | GI50 (HL60; [7]): 445 nM | TGI (HL60; [7]): 4344.3 nM

SMILES: O=C(C=Cc1ccc2c(ccn2S(=O)(=O)c2ccccc2)c1)NO [Compound 3, 3-(1-Benzenesulfonyl-1H-indol-5-yl)-N-hydroxy-acrylamide]
GI50 [1]: 480 nM | GI50 (Kasumi-1; Homo sapiens, Kasumi-1 leukemia cells, MTT, 48 or 72 hr): 96.6 nM | CC50 (Kasumi-1; Homo sapiens, Kasumi-1 leukemia cells, MTT, 48 or 72 hr, read-out: LC50 (the source's name)): 694 nM | TGI (Kasumi-1; [3]): 393.0 nM | GI50 (NB4; Homo sapiens, NB-4): 223 nM | CC50 (NB4; [8]): 779 nM | TGI (NB4; [4]): 500.9 nM | GI50 (K562; Homo sapiens, K562): 9020 nM | CC50 (K562; [9]): > 10000 nM | TGI (K562; [5]): >10000 nM | GI50 (U937; Homo sapiens, U-937): 162 nM | CC50 (U937; [10]): 718 nM | TGI (U937; [6]): 440.0 nM | TGI (HL60; [7]): 535.8 nM | GI50 (HL60; Homo sapiens, HL-60): 242 nM | GI50 ([2]; Homo sapiens): 960 nM | GI50 (HA22T (hepatoma); Homo sapiens): 1150 nM | GI50 (Hep 3B (hepatoma)): 410 nM | H3 expression (PC-3 cells): upregulated | histone deacetylation (PC-3 cells): inhibited | tubulin acetylation (PC-3 cells): upregulated

GI50 [1]: 750 nM | GI50 ([2]; Homo sapiens): 1310 nM | GI50 (HA22T (hepatoma); Homo sapiens): 1560 nM | GI50 (Hep 3B (hepatoma)): 550 nM
SMILES: COc1ccc(S(=O)(=O)n2ccc3cc(C=CC(=O)NO)ccc32)cc1 [Compound 4, N-hydroxy-3-[1-(4-methoxy-benzenesulfonyl)-1H-indol-5-yl]-acrylamide]

GI50 [1]: 660 nM | GI50 ([2]; Homo sapiens): 1590 nM | GI50 (HA22T (hepatoma); Homo sapiens): 2300 nM | GI50 (Hep 3B (hepatoma)): 640 nM
SMILES: O=C(C=Cc1ccc2c(ccn2S(=O)(=O)c2ccc(F)cc2)c1)NO [Compound 5, 3-[1-(4-fluoro-benzenesulfonyl)-1H-indol-5-yl]-N-hydroxy-acrylamide]

GI50 [1]: 750 nM | GI50 ([2]; Homo sapiens): 2120 nM | GI50 (HA22T (hepatoma); Homo sapiens): 1980 nM | GI50 (Hep 3B (hepatoma)): 560 nM
SMILES: O=C(C=Cc1ccc2c(ccn2S(=O)(=O)c2ccc([N+](=O)[O-])cc2)c1)NO [Compound 6, N-hydroxy-3-[1-(4-nitro-benzenesulfonyl)-1H-indol-5-yl]-acrylamide]

GI50 [1]: > 10000 nM | GI50 ([2]; Homo sapiens): > 10000 nM | GI50 (HA22T (hepatoma); Homo sapiens): > 10000 nM | GI50 (Hep 3B (hepatoma)): > 10000 nM
SMILES: Nc1ccc(S(=O)(=O)n2ccc3cc(C=CC(=O)NO)ccc32)cc1 [Compound 7, 3-[1-(4-Amino-benzenesulfonyl)-1H-indol-5-yl]-N-hydroxy-acrylamide]

GI50 [1]: 370 nM | GI50 ([2]; Homo sapiens): 930 nM | GI50 (HA22T (hepatoma); Homo sapiens): 930 nM | GI50 (Hep 3B (hepatoma)): 360 nM
SMILES: COc1ccc(S(=O)(=O)n2ccc3cc(C=CC(=O)NO)ccc32)cc1OC [Compound 8, 3-[1-(3,4-dimethoxy-benzenesulfonyl)-1H-indol-5-yl]-N-hydroxy-acrylamide]

SMILES: O=C(C=Cc1ccc2c(c1)CCN2S(=O)(=O)c1ccccc1)NO [Compound 12, 3-(1-benzenesulfonyl-2,3-dihydro-1H-indol-5-yl)-N-hydroxy-acrylamide]
GI50 [1]: 250 nM | GI50 (NB4; Homo sapiens, NB-4): 31.5 nM | CC50 (NB4; [8]): 91 nM | TGI (NB4; [4]): 61.2 nM | GI50 (K562; Homo sapiens, K562): 149 nM | CC50 (K562; [9]): > 10000 nM | TGI (K562; [5]): 982.0 nM | GI50 (U937; Homo sapiens, U-937): 54.7 nM | CC50 (U937; [10]): > 10000 nM | TGI (U937; [6]): 8330.0 nM | GI50 (MV4-11; Homo sapiens, MV4-11): 13.1 nM | CC50 (MV4-11; Homo sapiens, MV4-11, read-out: LC50): 87.2 nM | TGI (MV4-11; MV4-11 leukemia cells, MTT, 48 or 72 hr): 50.2 nM | TGI (HL60; [7]): 65.3 nM | GI50 (HL60; Homo sapiens, HL-60): 32.9 nM | GI50 ([2]; Homo sapiens): 700 nM | GI50 (HA22T (hepatoma); Homo sapiens): 620 nM | GI50 (Hep 3B (hepatoma)): 210 nM | H3 expression (PC-3 cells): upregulated | histone deacetylation (PC-3 cells): inhibited | tubulin acetylation (PC-3 cells): upregulated

GI50 [1]: 160 nM | GI50 ([2]; Homo sapiens): 320 nM | GI50 (HA22T (hepatoma); Homo sapiens): 540 nM | GI50 (Hep 3B (hepatoma)): 140 nM
SMILES: COc1ccc(S(=O)(=O)N2CCc3cc(C=CC(=O)NO)ccc32)cc1 [Compound 13, N-hydroxy-3-[1-(4-methoxy-benzenesulfonyl)-2,3-dihydro-1H-indol-5-yl]-acrylamide]

GI50 [1]: 370 nM | GI50 ([2]; Homo sapiens): 600 nM | GI50 (HA22T (hepatoma); Homo sapiens): 1200 nM | GI50 (Hep 3B (hepatoma)): 250 nM
SMILES: O=C(C=Cc1ccc2c(c1)CCN2S(=O)(=O)c1ccc(F)cc1)NO [Compound 14, 3-[1-(4-fluoro-benzenesulfonyl)-2,3-dihydro-1H-indol-5-yl]-N-hydroxy-acrylamide]

GI50 [1]: 450 nM | GI50 ([2]; Homo sapiens): 800 nM | GI50 (HA22T (hepatoma); Homo sapiens): 740 nM | GI50 (Hep 3B (hepatoma)): 280 nM
SMILES: O=C(C=Cc1ccc2c(c1)CCN2S(=O)(=O)c1ccc([N+](=O)[O-])cc1)NO [Compound 15, N-hydroxy-3-[1-(4-nitro-benzenesulfonyl)-2,3-dihydro-1H-indol-5-yl]-acrylamide]

GI50 [1]: > 10000 nM | GI50 ([2]; Homo sapiens): > 10000 nM | GI50 (HA22T (hepatoma); Homo sapiens): > 10000 nM | GI50 (Hep 3B (hepatoma)): > 10000 nM
SMILES: Nc1ccc(S(=O)(=O)N2CCc3cc(C=CC(=O)NO)ccc32)cc1 [Compound 16, 3-[1-(4-amino-benzenesulfonyl)-2,3-dihydro-1H-indol-5-yl]-N-hydroxy-acrylamide]

GI50 [1]: 190 nM | GI50 ([2]; Homo sapiens): 320 nM | GI50 (HA22T (hepatoma); Homo sapiens): 620 nM | GI50 (Hep 3B (hepatoma)): 160 nM
SMILES: COc1ccc(S(=O)(=O)N2CCc3cc(C=CC(=O)NO)ccc32)cc1OC [Compound 17, 3-[1-(3,4-dimethoxy-benzenesulfonyl)-2,3-dihydro-1H-indol-5-yl]-N-hydroxy-acrylamide]

SMILES: O=C(CCCCCCC(=O)Nc1ccccc1)NO [SAHA, reference compound]
CC50 (Kasumi-1): 917 nM | TGI (Kasumi-1; [3]): 604.75 nM | CC50 (NB4): 928 nM | GI50 (NB4; [4]): 303 nM | TGI (NB4; [4]): 615.8 nM | CC50 (K562): > 10000 nM | GI50 (K562; [5]): > 10000 nM | TGI (K562; [5]): >10000 nM | CC50 (U937): 5850 nM | GI50 (U937; [6]): 590 nM | TGI (U937; [6]): 2006.9 nM | GI50 (HL60; [7]): 455 nM | TGI (HL60; [7]): 811.9 nM | GI50 [2]: 2370 nM | GI50 (HA22T (hepatoma)): 2240 nM | H3 expression (PC-3 cells): upregulated | histone deacetylation (PC-3 cells): inhibited | tubulin acetylation (PC-3 cells): upregulated
